Test results taken from ChEMBL document CHEMBL1201862, “PubChem BioAssay data set” (2004).
The source made the active and inactive calls.

Key:
[1] = Luminescence Cell-Based Dose Retest to Confirm Inhibitors of Cancer Stem Cells. [Related pubchem assays (depositor defined):AID2717, AID2721]; format: functional, Homo sapiens; settings: Homo sapiens
[2] = cytotoxicity in HEK-293T cells, dose response, cytotoxicity control for TCR NF-kB inhibitor project, luminescence, T-cell screen hits (AID 489026); format: functional, cell-based;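 further: cells exposed to compound about 14 hours before the viability readout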
[3] = biological target: Induced myeloid leukemia cell differentiation protein Mcl-1 (Homo sapiens, UniProt Q07820); format: functional
[4] = biological target: T1, Histone-lysine N-methyltransferase NSD2 (Homo sapiens, UniProt O96028); format: biochemical
T1 sequence (O96028 whole entry): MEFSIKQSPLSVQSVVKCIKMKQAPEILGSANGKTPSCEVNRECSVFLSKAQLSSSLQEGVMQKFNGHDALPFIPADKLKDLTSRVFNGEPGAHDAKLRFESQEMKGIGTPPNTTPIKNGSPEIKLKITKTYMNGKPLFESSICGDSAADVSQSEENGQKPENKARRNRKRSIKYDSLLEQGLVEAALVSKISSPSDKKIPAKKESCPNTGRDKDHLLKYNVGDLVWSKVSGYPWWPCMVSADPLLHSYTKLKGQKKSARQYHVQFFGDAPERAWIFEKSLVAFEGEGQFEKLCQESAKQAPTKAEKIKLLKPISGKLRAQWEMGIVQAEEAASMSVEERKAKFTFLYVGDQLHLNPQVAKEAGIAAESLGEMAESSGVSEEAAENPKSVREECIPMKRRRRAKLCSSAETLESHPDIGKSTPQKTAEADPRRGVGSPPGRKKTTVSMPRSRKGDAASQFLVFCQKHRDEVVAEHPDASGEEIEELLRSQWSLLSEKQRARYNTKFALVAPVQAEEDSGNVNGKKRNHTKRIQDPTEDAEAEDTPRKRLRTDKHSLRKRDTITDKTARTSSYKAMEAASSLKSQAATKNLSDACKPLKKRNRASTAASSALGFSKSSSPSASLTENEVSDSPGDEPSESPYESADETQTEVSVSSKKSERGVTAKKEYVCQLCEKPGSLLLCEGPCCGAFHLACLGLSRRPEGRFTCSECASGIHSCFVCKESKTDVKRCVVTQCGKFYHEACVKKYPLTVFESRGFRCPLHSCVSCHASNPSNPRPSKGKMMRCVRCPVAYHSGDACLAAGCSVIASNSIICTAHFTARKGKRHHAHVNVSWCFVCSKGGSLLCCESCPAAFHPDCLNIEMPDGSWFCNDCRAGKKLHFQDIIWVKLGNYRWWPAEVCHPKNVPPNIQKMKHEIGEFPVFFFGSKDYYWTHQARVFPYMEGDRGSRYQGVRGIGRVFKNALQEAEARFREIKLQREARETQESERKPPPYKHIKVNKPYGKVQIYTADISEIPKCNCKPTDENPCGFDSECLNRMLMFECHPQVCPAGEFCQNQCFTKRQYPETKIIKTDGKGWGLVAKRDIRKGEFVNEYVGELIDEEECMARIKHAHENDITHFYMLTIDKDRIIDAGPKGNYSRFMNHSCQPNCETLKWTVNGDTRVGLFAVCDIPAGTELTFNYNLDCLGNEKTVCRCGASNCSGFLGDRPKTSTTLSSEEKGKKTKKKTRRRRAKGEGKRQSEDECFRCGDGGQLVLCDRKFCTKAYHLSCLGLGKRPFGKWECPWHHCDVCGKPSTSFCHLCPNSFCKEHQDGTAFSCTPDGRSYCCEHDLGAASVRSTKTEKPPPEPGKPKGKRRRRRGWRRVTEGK

Cytochrome P450 3A4 = Cytochrome P450 3A4 (Homo sapiens, UniProt P08684); settings: Potency;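 further: confirmatory qHTS run detecting inhibitors and substrates of CYP3A4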
INS1 = experiment: beta cell apoptosis inhibitors, cytokine rescue, dose response, luminescence, retest (AID 449756); format: functional, cell-based; settings: Rattus norvegicus;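 further: cell death triggered by IL-1 beta plus TNF-alpha plus IFN-gamma mixture; protective hits raise ATP signal compared with cytokine alone wells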
cells [5] = format: functional, cell-based
cells [6] = format: functional, cell-based; remark: listed apart in the source
[7] = Luminescence Cell-Based Dose Response HTS to Identify Activators of Luciferase Translation or Activity in H4 […] Cells. [Related pubchem assays: 1829 (Project Summary), 1814 (Primary HTS)]; format: functional
H4 = experiment: Luminescence Cell-Based Dose Response HTS to Identify Activators of 5'UTR Stem-Loop Driven Prion Protein mRNA Translation in H4 Neuroglioblastoma Cells. [Related pubchem assays: 1829 (Project Summary), 1814 (Primary HTS)]; format: functional; settings: Homo sapiens
[8] = Luminescence Cell-Based Dose Confirmation HTS to Identify Activators of 5'UTR Stem-Loop Driven Alpha-Synuclein mRNA Translation in H4 Neuroglioblastoma Cells. [Related pubchem assays: 1829 (Project Summary), 1814 (Primary HTS)]; format: functional
[9] = Luminescence Cell-Based Dose Response HTS to Identify Inhibitors of 5'UTR Stem-Loop Driven Prion Protein mRNA Translation in H4 Neuroglioblastoma Cells. [Related pubchem assays: 1827 (Project Summary), 1813 (Primary HTS)]; format: functional
[10] = inhibitors of firefly luciferase expression or activity, dose response, H4 neuroglioma cells, luminescence (AID 1990); format: functional, cell-based
[11] = inhibitors of SNCA 5'UTR-driven reporter translation, confirmation, H4 neuroglioma cells, luminescence (AID 1988); format: functional, cell-based
[12] = microbe, parasite or virus in culture; format: functional; settings: Mycobacterium tuberculosis
HEK293 [13] = experiment: NOD2 signaling inhibitors in MDP-stimulated cells, cell-based, uHTS, luminescence (AID 2001); format: functional; settings: Homo sapiens
HEK293 [14] = experiment: cells; format: functional, cell-based; settings: Homo sapiens
HEK293 [15] = experiment: NOD1 signaling inhibitors, primary screen, cell-based, luminescence, uHTS (AID 1578); format: functional; settings: Homo sapiens
HEK293 [16] = experiment: cells; format: functional, cell-based; settings: Homo sapiens; remark: listed apart in the source
[17] = HEp-2 cell cytotoxicity, dose response, cytotoxicity control for RSV inhibitor project, HTS (AID 2410); format: functional; settings: human respiratory syncytial virus
[18] = biological target: T2, Short transient receptor potential channel 4 (Mus musculus, UniProt Q9QUQ5); experiment: mouse TRPC4 channel inhibitors, dose response, cell-based, HEK293 TRPC4/mu-opioid, Fluo-4 calcium (AID 434942); format: functional;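 further: potency of inhibitors blocking the TRPC4 calcium response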
T2 sequence (Q9QUQ5 whole entry): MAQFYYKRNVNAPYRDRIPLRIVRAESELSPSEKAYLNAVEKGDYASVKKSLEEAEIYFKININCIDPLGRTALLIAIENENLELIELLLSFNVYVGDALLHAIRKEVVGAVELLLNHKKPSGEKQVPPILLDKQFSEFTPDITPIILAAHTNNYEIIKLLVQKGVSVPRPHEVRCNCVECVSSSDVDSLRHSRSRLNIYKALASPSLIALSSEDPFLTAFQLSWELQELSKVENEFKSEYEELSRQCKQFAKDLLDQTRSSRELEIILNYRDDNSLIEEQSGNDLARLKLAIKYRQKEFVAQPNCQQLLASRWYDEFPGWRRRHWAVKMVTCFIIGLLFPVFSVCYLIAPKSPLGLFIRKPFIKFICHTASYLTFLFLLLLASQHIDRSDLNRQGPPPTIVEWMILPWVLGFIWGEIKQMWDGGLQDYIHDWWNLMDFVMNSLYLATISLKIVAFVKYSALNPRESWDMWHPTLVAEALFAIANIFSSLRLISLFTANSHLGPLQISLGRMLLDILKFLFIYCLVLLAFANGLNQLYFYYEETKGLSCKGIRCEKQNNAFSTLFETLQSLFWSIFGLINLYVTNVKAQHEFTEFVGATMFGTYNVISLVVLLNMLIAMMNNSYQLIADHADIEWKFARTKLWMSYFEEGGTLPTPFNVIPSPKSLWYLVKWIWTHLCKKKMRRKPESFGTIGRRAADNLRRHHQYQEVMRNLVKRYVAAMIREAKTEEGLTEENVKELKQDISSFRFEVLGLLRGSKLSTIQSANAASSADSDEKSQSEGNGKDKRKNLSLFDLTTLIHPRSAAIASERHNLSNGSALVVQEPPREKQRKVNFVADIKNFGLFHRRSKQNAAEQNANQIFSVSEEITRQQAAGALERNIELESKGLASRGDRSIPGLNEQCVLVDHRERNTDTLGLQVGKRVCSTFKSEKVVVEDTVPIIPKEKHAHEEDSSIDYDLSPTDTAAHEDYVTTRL

Genome polyprotein = Genome polyprotein (dengue virus type 2, UniProt P29990); experiment: Dengue-2 NS5 methyltransferase inhibitors, primary screen, biochemical, confirmation dose response (AID 588689); format: functional
Fatty acid synthase [19] = biological target: T3, Fatty acid synthase (Homo sapiens, UniProt P49327); experiment: FAS thioesterase domain inhibitors, dose response, biochemical, endpoint fluorescence intensity, uHTS hits (AID 624327); format: functional;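 further: fluorescence from hydrolysis of an O-methyl fluorescein acyl ester substrate by the enzyme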
[20] = Luminescence Cell-Based Dose Confirmation HTS to Identify Inhibitors of Platelet Dense Granule Release. [Related pubchem assays: 1663 (Primary HTS), 1678 (Summary of Project)]; format: functional
[21] = biological target: Luciferin 4-monooxygenase (Photinus pyralis, UniProt P08659); experiment: firefly luciferase enzyme inhibitors, dose response, biochemical, luminescence (AID 1891)
Fatty acid synthase [22] = biological target: T3, Fatty acid synthase; experiment: FAS thioesterase domain inhibitors, dose response, biochemical, kinetic fluorescence intensity (AID 624326); format: functional;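 further: rate of fluorescence rise from hydrolysis of a fluorogenic O-methyl fluorescein ester substrate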
[23] = biological target: T4, Heat shock factor protein 1 (Mus musculus, UniProt P38532); experiment: inhibition of MG132-induced HSE-luciferase signal, confirmation, cell-based, NIH3T3, luminescence, dose retest (AID 2382); format: functional;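 further: NIH3T3 fibroblasts with HSF1-driven luciferase reporter stressed by proteasome inhibitor MG132; luminescence from HSF1-driven luciferase expression after 8 hours of MG132 stress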
T4 sequence (P38532 whole entry): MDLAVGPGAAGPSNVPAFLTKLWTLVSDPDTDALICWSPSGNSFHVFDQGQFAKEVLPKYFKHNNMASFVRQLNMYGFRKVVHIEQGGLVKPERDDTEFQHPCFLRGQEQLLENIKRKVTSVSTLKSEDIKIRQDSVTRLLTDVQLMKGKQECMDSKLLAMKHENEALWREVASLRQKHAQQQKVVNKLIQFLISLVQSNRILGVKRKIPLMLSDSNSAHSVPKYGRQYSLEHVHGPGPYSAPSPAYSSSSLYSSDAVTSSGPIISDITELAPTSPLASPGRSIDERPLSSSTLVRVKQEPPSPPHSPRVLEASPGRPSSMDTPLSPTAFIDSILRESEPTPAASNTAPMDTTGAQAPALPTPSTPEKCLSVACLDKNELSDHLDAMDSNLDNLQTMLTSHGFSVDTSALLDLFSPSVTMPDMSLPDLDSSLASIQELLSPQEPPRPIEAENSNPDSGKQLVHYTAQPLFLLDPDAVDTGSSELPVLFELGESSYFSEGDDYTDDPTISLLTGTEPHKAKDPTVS

cells [24] = format: functional

Sequence of Induced myeloid leukemia cell differentiation protein Mcl-1 (Q07820 whole entry): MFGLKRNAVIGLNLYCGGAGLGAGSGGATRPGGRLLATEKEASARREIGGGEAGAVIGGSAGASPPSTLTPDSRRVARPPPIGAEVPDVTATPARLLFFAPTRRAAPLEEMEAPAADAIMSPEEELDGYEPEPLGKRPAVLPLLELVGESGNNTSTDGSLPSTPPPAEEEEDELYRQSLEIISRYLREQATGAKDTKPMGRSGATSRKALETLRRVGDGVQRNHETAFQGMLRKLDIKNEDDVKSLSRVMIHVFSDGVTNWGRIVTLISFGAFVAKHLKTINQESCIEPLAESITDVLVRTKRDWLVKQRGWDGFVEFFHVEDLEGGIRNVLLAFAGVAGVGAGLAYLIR
T3 sequence (P49327 whole entry, the tested form may be a part): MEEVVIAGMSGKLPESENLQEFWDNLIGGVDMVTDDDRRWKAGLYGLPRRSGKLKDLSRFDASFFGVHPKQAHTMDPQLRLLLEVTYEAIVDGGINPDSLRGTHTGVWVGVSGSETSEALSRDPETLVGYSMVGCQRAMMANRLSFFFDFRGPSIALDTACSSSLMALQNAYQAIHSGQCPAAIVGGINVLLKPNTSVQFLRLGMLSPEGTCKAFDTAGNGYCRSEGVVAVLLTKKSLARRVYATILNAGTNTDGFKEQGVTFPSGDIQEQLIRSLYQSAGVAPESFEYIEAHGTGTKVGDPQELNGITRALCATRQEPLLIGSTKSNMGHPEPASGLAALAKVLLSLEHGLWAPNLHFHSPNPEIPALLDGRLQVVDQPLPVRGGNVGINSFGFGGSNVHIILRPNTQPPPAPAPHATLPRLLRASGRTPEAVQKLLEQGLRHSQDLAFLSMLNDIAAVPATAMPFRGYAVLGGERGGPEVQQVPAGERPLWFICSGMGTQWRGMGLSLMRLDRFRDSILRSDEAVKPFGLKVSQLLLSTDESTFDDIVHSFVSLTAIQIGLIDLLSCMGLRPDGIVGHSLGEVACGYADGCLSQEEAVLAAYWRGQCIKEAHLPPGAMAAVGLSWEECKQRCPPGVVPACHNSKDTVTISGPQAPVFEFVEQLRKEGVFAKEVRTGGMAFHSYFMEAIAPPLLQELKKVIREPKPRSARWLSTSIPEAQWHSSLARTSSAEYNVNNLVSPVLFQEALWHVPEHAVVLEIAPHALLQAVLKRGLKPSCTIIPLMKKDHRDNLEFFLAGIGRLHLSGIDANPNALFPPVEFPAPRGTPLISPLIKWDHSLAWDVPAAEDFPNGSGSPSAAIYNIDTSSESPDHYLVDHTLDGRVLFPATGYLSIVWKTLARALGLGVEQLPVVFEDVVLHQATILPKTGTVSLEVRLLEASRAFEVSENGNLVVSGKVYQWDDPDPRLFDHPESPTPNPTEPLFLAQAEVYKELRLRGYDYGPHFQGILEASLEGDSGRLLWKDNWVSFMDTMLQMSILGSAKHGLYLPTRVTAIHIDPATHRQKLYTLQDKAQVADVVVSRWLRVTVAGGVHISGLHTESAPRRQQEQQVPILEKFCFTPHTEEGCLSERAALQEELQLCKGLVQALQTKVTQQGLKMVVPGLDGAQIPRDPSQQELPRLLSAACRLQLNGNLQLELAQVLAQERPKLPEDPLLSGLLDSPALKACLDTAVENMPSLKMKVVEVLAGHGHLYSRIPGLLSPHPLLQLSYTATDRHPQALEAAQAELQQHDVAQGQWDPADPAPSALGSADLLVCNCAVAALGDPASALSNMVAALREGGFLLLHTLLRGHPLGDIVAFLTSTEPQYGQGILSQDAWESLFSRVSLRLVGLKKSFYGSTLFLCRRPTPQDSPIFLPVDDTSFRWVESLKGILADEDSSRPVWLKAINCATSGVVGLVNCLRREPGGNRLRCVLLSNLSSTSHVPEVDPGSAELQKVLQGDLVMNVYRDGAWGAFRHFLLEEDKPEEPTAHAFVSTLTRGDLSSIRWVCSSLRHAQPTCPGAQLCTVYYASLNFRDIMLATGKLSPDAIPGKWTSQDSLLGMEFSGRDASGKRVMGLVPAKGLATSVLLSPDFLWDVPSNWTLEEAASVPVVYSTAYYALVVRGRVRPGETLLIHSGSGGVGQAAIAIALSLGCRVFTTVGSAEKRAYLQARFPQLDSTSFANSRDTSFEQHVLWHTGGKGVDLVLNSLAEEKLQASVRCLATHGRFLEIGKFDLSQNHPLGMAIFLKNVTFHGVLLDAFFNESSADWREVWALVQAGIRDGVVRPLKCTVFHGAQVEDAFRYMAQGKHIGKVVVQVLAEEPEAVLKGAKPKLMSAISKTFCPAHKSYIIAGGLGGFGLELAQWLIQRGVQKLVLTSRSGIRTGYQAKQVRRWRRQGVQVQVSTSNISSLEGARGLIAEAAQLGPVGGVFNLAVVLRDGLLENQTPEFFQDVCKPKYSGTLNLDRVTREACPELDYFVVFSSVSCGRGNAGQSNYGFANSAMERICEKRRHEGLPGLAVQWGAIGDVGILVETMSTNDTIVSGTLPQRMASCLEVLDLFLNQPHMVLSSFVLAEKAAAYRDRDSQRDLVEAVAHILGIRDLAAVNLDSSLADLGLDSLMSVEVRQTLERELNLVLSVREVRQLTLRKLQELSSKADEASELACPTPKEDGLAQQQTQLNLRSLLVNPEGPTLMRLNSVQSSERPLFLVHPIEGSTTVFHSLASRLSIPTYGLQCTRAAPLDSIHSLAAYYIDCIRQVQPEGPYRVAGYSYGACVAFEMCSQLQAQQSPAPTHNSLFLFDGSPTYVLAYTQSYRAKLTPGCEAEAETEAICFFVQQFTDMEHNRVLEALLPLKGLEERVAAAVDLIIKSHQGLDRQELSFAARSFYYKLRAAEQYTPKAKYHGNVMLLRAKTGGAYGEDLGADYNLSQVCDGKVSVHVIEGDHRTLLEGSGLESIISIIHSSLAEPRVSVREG
Sequence of Cytochrome P450 3A4 (P08684 whole entry): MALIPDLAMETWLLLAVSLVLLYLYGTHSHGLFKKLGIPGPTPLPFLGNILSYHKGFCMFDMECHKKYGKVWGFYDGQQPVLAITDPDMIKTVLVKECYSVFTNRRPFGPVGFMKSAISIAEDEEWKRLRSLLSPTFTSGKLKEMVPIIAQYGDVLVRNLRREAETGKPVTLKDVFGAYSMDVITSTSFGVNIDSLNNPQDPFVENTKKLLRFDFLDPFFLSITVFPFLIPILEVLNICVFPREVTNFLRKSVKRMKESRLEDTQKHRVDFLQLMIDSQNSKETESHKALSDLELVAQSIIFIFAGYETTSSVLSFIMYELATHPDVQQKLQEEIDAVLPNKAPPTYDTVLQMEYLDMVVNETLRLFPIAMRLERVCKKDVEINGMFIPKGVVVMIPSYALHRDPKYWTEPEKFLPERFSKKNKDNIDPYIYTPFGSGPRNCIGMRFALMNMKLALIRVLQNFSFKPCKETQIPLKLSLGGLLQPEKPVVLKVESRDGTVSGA
Sequence of Genome polyprotein (P29990 2492-3391 limits assumed): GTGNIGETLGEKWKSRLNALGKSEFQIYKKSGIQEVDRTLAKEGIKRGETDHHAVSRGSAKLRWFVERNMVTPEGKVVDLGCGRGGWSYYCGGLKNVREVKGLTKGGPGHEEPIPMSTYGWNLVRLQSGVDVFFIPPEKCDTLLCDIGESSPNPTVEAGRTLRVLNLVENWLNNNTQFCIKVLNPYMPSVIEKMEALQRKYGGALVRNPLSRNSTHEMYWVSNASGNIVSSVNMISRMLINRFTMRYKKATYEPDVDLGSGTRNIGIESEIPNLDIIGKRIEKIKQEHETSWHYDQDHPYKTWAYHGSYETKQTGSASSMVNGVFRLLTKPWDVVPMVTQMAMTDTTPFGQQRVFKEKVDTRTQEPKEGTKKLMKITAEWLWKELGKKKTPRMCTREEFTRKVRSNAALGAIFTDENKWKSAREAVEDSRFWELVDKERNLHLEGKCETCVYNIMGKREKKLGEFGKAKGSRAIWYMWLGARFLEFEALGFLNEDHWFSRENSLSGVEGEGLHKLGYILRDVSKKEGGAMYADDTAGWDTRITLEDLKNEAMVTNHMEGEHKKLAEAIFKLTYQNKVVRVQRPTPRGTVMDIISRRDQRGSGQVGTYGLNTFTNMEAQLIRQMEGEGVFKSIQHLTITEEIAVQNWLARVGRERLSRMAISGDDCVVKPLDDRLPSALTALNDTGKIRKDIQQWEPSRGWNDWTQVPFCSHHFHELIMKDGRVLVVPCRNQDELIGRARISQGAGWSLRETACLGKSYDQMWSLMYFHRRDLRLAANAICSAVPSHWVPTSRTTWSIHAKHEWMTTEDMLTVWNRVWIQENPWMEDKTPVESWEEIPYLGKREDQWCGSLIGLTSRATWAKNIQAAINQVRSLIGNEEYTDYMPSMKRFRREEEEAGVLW
Sequence of Luciferin 4-monooxygenase (P08659 whole entry, the tested form may be a part): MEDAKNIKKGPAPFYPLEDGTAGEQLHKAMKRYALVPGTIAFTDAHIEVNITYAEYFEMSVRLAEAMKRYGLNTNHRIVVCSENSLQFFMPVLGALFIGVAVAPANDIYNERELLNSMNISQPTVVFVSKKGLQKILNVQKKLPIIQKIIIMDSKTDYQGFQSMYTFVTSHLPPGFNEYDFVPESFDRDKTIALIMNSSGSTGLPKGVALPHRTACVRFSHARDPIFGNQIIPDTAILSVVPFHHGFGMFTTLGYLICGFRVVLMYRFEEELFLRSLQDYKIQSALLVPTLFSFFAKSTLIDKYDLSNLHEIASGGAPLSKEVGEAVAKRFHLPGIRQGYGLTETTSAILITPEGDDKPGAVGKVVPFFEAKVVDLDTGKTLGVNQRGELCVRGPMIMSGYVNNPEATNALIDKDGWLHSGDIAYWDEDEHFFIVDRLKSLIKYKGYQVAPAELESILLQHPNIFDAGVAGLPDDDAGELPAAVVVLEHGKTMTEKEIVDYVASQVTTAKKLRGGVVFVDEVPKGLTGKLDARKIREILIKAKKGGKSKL

## COc1cc(-c2noc(C)c2/C=C/c2ccc(OC(C)=O)cc2)cc(OC)c1OC
[1]
  AC50: 0.222 µM (active)
[2]
  IC50: 52.8 µM (inactive)

## CNCc1ccccc1OCc1ccccc1F
[3]
  IC50: 0.557 µM (active)
[4]
  AC50: > 20 µM (inactive)

## CCCCC(CC)COCCCN (centres undefined)
Cytochrome P450 3A4
  AC50: 31.6 µM (inconclusive)

## O=C1NC(=S)N/C1=C/c1cccn1-c1ccc([N+](=O)[O-])cc1
[3]
  IC50: 4.63 µM (not active)

## C=C1C(O)[C@@H]2O[C@]3(CC[C@H](/C=C/C(C)[C@@H]4CC(C)=CC5(O[C@H](C[C@@](C)(O)CO)CCC5O)O4)O3)CC[C@H]2O[C@@H]1C(O)CC(C)[C@H]1OC2(CCCCO2)CCC1C (some centres undefined)
[2]
  IC50: > 80 µM (inactive)
INS1
  AC50: 5.98 µM (active)

## CCC(=O)N1CCc2cc(S(=O)(=O)NCCC(=O)N3CCN(c4cccc(OC)c4)CC3)ccc21
Cells [5]
  EC50: > 350 µM (not active)
Cells [6]
  EC50: > 350 µM (not active)

## O=C(CSc1nnc(-c2ccncc2)o1)N1CCCCCC1
Cells [5]
  EC50: > 350 µM (not active)
Cells [6]
  EC50: > 350 µM (not active)

## N=C(NOC(=O)Cc1cccs1)c1ccccc1
[7]
  EC50: 11.1 µM (active)
Cells [5]
  EC50: 20.7 µM (active)
H4
  EC50: 9.96 µM (active)
Cells [6]
  EC50: > 350 µM (not active)
[8]
  EC50: 3.81 µM (active)

## COc1ccc2c(c1)c(C(=O)CN1CCc3ccccc3C1)c(C)n2C
Cells [5]
  EC50: > 350 µM (not active)
Cells [6]
  EC50: > 350 µM (not active)

## CCOc1ccc(S(=O)(=O)N2c3ccccc3CC2C)cc1 (centres undefined)
[9]
  EC50: 7.42 µM (active)
[2]
  IC50: > 80 µM (inactive)
[10]
  EC50: 7.65 µM (inconclusive)
[11]
  EC50: 3.2 µM (active)

## COc1ccc(/C=C/CN2CCC(CO)(Cc3ccccc3Cl)CC2)cc1
[12]
  CC50: 32.7 µM (active)

## O=C(c1[nH]nc2c1CCc1ccccc1-2)N1CCN(Cc2ccc3c(c2)OCO3)CC1
HEK293 [13]
  IC50: 5.11 µM (active)
HEK293 [14]
  IC50: 4.07 µM (active)
HEK293 [15]
  EC50: 5.4 µM (active)
HEK293 [16]
  IC50: 8.27 µM (active)

## CCN(CC)c1ccc([N+](=O)[O-])c2cccnc12
[17]
  CC50: 36.7 µM (active)
[18]
  EC50: 10.6 µM (active)

## Cc1cc(S(=O)(=O)ON2C(=O)c3ccccc3C2=O)ccc1F
Genome polyprotein
  IC50: > 100 µM (active)
Fatty acid synthase [19]
  IC50: 2.43 µM (active)
[20]
  EC50: > 112 µM (not active)
[21]
  EC50: > 112 µM (not active)
Cells [5]
  EC50: > 350 µM (not active)
Cells [6]
  EC50: > 350 µM (not active)
Fatty acid synthase [22]
  IC50: 2.07 µM (active)

## COc1ccc(Nc2ncnc3ccc(Br)cc23)c(OC)c1
[2]
  IC50: > 80 µM (inactive)
[23]
  EC50: 0.354 µM (active)

## Cn1c(CNc2ccccc2O)nc2ccccc21
[12]
  CC50: 30.4 µM (active)
Cells [24]
  IC50: 4.79 µM (active)

## Cc1c(C(=O)OC2CCCC2)[nH]c2c1C(=O)CC(c1ccco1)C2 (centres undefined)
[2]
  IC50: > 80 µM (inactive)

## CCS(=O)(=O)N1CCN(C(C)CCc2ccccc2)CC1 (centres undefined)
[3]
  IC50: 6 µM (not active)

## NC(=O)c1nsc(C(=O)N(Cc2ccco2)C(C(=O)NCC2CCCO2)c2ccc(F)cc2)c1N (centres undefined)
[18]
  EC50: 10.6 µM (active)
